Laboratory results as given in US4169096A, “Antibiotic compounds” (priority 1977, dated 1979).
Converted amounts (≈) assume the structure as drawn.

How the values were obtained:
[1] = system: Fusobacterium mortiferum ATCC 9817; test: microbe, parasite or virus in culture; conditions: ATCC9817
[2] = system: Staphylococcus aureus #52-34; test: MIC, serial two-fold agar dilution, aerobic bacteria; format: cell-based
C. perfringens A9635 [3] = test: animal or person; format: in vivo, mice
Solubility = format: physicochemical
[4] = system: Serratia marcescens A20019; test: MIC, serial two-fold agar dilution, aerobic bacteria; format: cell-based; conditions: Nutrient agar (Eiken), read-out: MIC
[5] = system: Escherichia coli K-12 A9632; test: as above; conditions: K12A9632
[6] = system: Bacteroides fragilis A20932; test: microbe, parasite or virus in culture
[7] = system: aerobic and anaerobic bacteria; test: Antibacterial activity and spectrum (in words); format: cell-based
[8] = system: Streptococcus viridans A21354; test: MIC, serial two-fold agar dilution, aerobic bacteria; format: cell-based; conditions: GC medium (Eiken)
C. perfringens A9635 [9] = test: microbe, parasite or virus in culture; format: cell-based; conditions: Clostridium perfringens
[10] = system: Sphaerophorus necrophorus A15202; test: microbe, parasite or virus in culture; conditions: Fusobacterium necrophorum
Micrococcus flavus = test: MIC, serial two-fold agar dilution, aerobic bacteria; format: cell-based
S. pyogenes A20201 [11] = test: Bactericidal activity (MIC & MBC); format: cell-based; conditions: Streptococcus pyogenes, A20201, 18 h
[12] = system: Fusobacterium varium ATCC 8501; test: microbe, parasite or virus in culture; conditions: ATCC8501
[13] = system: Diplococcus pneumoniae A9585; test: MIC, serial two-fold agar dilution, aerobic bacteria; format: cell-based; conditions: Streptococcus pneumoniae, GC medium (Eiken)
Proteus morganii A9553 = test: as above; format: cell-based; conditions: Morganella morganii, Nutrient agar (Eiken)
[14] = pKa' by titration in aqueous ethanol; format: physicochemical; conditions: 50% aqueous ethanol
[15] = system: Bacillus cereus ATCC 10702 A; test: MIC, serial two-fold agar dilution, aerobic bacteria; format: cell-based; conditions: ATCC10702
B. fragilis A20928-1 [16] = test: Inoculum size effect on MIC, GAM broth; format: cell-based; conditions: Bacteroides fragilis
aerobic organisms = test: Antibacterial activity against aerobic bacteria (in words); format: cell-based; conditions: Bacillus species, streptococci, Neisseria meningtidis, N. gonorrhoeae, Hemophilus influenzae
[17] = system: Neisseria gonorrhoeae A20154; test: MIC, serial two-fold agar dilution, aerobic bacteria; format: cell-based; conditions: GC medium (Eiken)
[18] = system: Pseudomonas aeruginosa A9843; test: as above; format: cell-based; conditions: test medium not given
B. fragilis A20928-1 [19] = test: Inoculum size effect on MIC, GAM agar; format: cell-based; conditions: Bacteroides fragilis, A209281; inoculum size 1.2 × 10^6 cell/ml
[20] = system: Sphaerophorus pseudonecrophorus A20013; test: microbe, parasite or virus in culture; conditions: Fusobacterium necrophorum
[21] = system: Bacteroides fragilis A20929; test: microbe, parasite or virus in culture
[22] = system: two anaerobic organisms (B. fragilis and C. perfringens); format: cell-based; conditions: broth dilution method
B. fragilis A20928-1 [23] = test: Bactericidal activity (MIC & MBC); format: cell-based; conditions: Bacteroides fragilis, A209281, inoculum size 2.8 × 10^6 cell/ml
[24] = system: Peptococcus aerogenes ATCC 14963; test: microbe, parasite or virus in culture; conditions: Peptoniphilus asaccharolyticus, ATCC14963
[25] = system: Hemophilus influenzae A9832; test: MIC, serial two-fold agar dilution, aerobic bacteria; format: cell-based; conditions: Haemophilus influenzae, GC medium (Eiken)
[26] = system: Streptococcus pyogenes A9604; test: as above; format: cell-based; conditions: GC medium (Eiken)
[27] = system: Staphylococcus aureus 209P; test: as above; format: cell-based; conditions: Nutrient agar (Eiken)
[28] = system: Peptocuccus prevotii ATCC 9321; test: microbe, parasite or virus in culture
Sarcina lutea PCI-1001 = test: MIC, serial two-fold agar dilution, aerobic bacteria; format: cell-based; conditions: Micrococcus luteus, PCI1001; Nutrient agar (Eiken); read-out: MIC
[29] = system: Klebsiella pneumoniae A9678; test: as above; format: cell-based; conditions: Nutrient agar (Eiken), read-out: MIC
[30] = system: Staphylococcus aereus Smith; test: as above; format: cell-based
[31] = system: Escherichia coli Juhl A15119; test: as above; format: cell-based; conditions: JUHLA15119
[32] = system: C. perfringens or S. pyrogenes; format: in vivo, mice; conditions: oral
[33] = system: Streptococcus pyogenes A20201; test: MIC, serial two-fold agar dilution, aerobic bacteria; format: cell-based; conditions: GC medium (Eiken)
S. pyogenes A20201 [34] = test: Systemic infection with S. pyogenes in mice; format: in vivo; conditions: just before challenge, determined after 5 days

## COC(=O)C1C(C)OC2(C)CC(=O)C3OC12OC(C(C)/C=C(C)/C=C/C(=O)C1=C(O)CN(C)C1=O)C3C (centres unmarked) [Bu-2313A]
[1]
  MIC: 0.2 µg/mL (≈ 0.386 µM)
[2]
  MIC: 12.5 µg/mL (≈ 24.2 µM)
C. perfringens A9635 [3]; Clostridium perfringens, A9635, in Mus musculus, sc, 120 h, read-out: PD50
  ED50: 6.25 mg/kg
C. perfringens A9635 [3]; po, just before challenge, determined after 5 days, NA: no activity
  PD50: NA at 50
Solubility; hexane and alkaline water
  solubility: slightly soluble
Solubility; most organic solvents such as lower alcohols, ethyl acetate, chloroform and benzene
  solubility: readily soluble
Solubility; water
  solubility: practically insoluble
[4]
  MIC: > 100 µg/mL
[5]
  MIC: > 100 µg/mL
[6]
  MIC: 0.2 µg/mL (≈ 0.386 µM)
[7]
  antibacterial activity: exhibit antibacterial activity against a variety of anaerobic bacteria and some aerobic bacteria
[7]; in vitro
  comparative activity and antibacterial spectrum: very similar to those of tirandamycin
[8]
  MIC: 0.8 µg/mL (≈ 1.55 µM)
C. perfringens A9635 [9]; A9635
  MIC: 0.1 µg/mL (≈ 0.193 µM)
C. perfringens A9635 [9]; A9635, 18 h
  MBC: 12.5 µg/mL (≈ 24.2 µM)
[10]
  MIC: 0.2 µg/mL (≈ 0.386 µM)
Micrococcus flavus
  MIC: 6.3 µg/mL (≈ 12.2 µM)
S. pyogenes A20201 [11]
  MBC: 12.5 µg/mL (≈ 24.2 µM)
[12]
  MIC: 0.1 µg/mL (≈ 0.193 µM)
In vivo; ip, LD50, ip
  LD50: 14 mg/kg
In vivo; po, LD50, po
  LD50: 90 mg/kg
In vivo; sc, LD50, sc
  LD50: 90 mg/kg
[13]
  MIC: 0.8 µg/mL (≈ 1.55 µM)
Proteus morganii A9553
  MIC: > 100 µg/mL
[14]
  pKa: 5.2
[15]
  MIC: 0.8 µg/mL (≈ 1.55 µM)
B. fragilis A20928-1 [16]; A209281, inoculum size […] 10^7 cell/ml, read-out: MIC in GAM broth
  MIC: 0.8 µg/mL (≈ 1.55 µM)
B. fragilis A20928-1 [16]; A209281, read-out: MIC in GAM broth, inoculum size […] 10^6 cell/ml
  MIC: 0.06 µg/mL (≈ 0.116 µM)
Aerobic organisms
  susceptibility of aerobic strains: susceptible
[17]
  MIC: 0.8 µg/mL (≈ 1.55 µM)
[18]
  MIC: > 100 µg/mL
B. fragilis A20928-1 [19]
  MIC: 0.1 µg/mL (≈ 0.193 µM)
[20]
  MIC: 0.2 µg/mL (≈ 0.386 µM)
[21]
  MIC: 0.2 µg/mL (≈ 0.386 µM)
[22]
  influence of inoculum size on MIC: greatly affected by inoculum size
B. fragilis A20928-1 [23]; broth
  MIC: 0.03 µg/mL (≈ 0.058 µM)
B. fragilis A20928-1 [23]; growth of less than 100 colonies per plate, 18 hours at 37° C.
  MBC: > 0.8 µg/mL
[24]
  MIC: 0.2 µg/mL (≈ 0.386 µM)
[25]
  MIC: 0.8 µg/mL (≈ 1.55 µM)
[26]
  MIC: 0.8 µg/mL (≈ 1.55 µM)
[27]
  MIC: 25 µg/mL (≈ 48.3 µM)
[28]
  MIC: 0.2 µg/mL (≈ 0.386 µM)
Sarcina lutea PCI-1001
  MIC: 25 µg/mL (≈ 48.3 µM)
[29]
  MIC: > 100 µg/mL
[30]
  MIC: 12.5 µg/mL (≈ 24.2 µM)
[31]
  MIC: > 100 µg/mL
[32]
  activity by the oral route: inactive by the oral route
[33]
  MIC: 0.8 µg/mL (≈ 1.55 µM)
S. pyogenes A20201 [34]; Streptococcus pyogenes, A20201, 120 h, sc, read-out: PD50
  ED50: 7.6 mg/kg
S. pyogenes A20201 [34]; po, NA: no activity
  PD50: NA at 25
